The test system of series [1] is HepG2/CDDP cells. Kind of series: Western blot of cleaved caspase-3/7/PARP. The series is classed as cell-based, human. Particulars: CDDP 10 µM with or without calyxin Y 20 µM, 24 h. From the text:
The procedures for Western blotting were described previously.
A general note: In western blotting, separated proteins are transferred to a membrane and probed.

The nature of series [2]: Hematological parameters of nude mice bearing HepG2/CDDP xenograft. Particulars: calyxin Y 20 mg/kg i.p. every other day and/or CDDP 4 mg/kg i.p. once per week, 19 days; mean ± S.D., n = 3. The series is classed as in vivo, BALB/c nu/nu mice. The procedure: (§1) All animal procedures were performed according to comply with the ARRIVE guidelines, the U.K. Animals (Scientific Procedures) Act, 1986 and associated guidelines. The protocol was approved by the Institutional Animal Care and Use Committee at China Pharmaceutical University. Four-week-old BALB/c nu/nu mice (18-22 g) purchased from Shanghai Laboratory Animal Center of Chinese Academy of Sciences (Shanghai, China) were used for in vivo experiments. Animals were housed at a constant room temperature with a 12 h:12 h light/dark cycle and were provided a standard rodent diet and water. HepG2/CDDP cells were harvested and injected subcutaneously into the right flank (1 × 10^7 cells in 150 μl of cold PBS). […] (1) control group, mice were injected intraperitoneally (i.p.) with 10% DMSO + 90% normal saline (n = 6); (2) […] group: mice were injected i.p. with 20 mg/kg […] every other day (n = 6); (3) CDDP group: mice were injected i.p. with 4 mg/kg CDDP once per week (n = 6); (4) […] + CDDP group: mice were injected i.p. with 20 mg/kg […] every other day and 4 mg/kg CDDP once per week (n = 6). The tumor volume was determined by measuring length (l) and width (w) and calculating volume (V = 0.5 × l × w^2) at the indicated time points. At the end of treatment, the animals were sacrificed, and the tumors were removed and weighed for use in histology and protein expression studies. Using a standard saphenous vein blood collection technique, blood was drawn for hematologic and serum biochemistry analyses.

The test system of series [3] is HepG2 cells. Kind of series: Annexin V/7-AAD staining assay (flow cytometry). Format: cell-based, human. The settings on record: CDDP 10 µM with or without calyxin Y 20 µM, 24 h. The procedure: HepG2 and HepG2/CDDP cells were plated on 6-well plates and incubated overnight. Next, the cells were treated with […] and/or CDDP for 24 h. Cells in 200 μl of binding buffer were stained with 5 μl of Annexin V-Alexa Fluor 647 ([…] Biotech Co., Ltd., China) and 5 μl of 7-AAD at room temperature for 15 min. The cells were then analyzed by flow cytometry with a BD Accuri C6 flow cytometer (Becton & Dickinson Company, Franklin Lakes, NJ, USA). The cells undergoing apoptosis are Annexin V positive.
Background: In flow cytometry, cells or beads pass a laser one at a time.

The test system of series [4] is HepG2/CDDP cells. Description: MTT cell viability assay. Format: cell-based, human. Here is the method:
Human hepatocellular carcinoma HepG2 cells were purchased from Cell Bank of Shanghai Institute of Biochemistry and Cell Biology, Chinese Academy of Sciences (Shanghai, China). mtrDNA sequence analysis was done by the cell bank to confirm the species and cells were tested free from mycoplasma. CDDP-selected drug-resistant HepG2/CDDP cells were derived from HepG2 cells by utilizing serial passage in the presence of increasing CDDP concentrations. Briefly, cells were treated with CDDP (1 μM) for 72 h. The media and dead cells were removed, and cells were allowed to recover for a further 72 h and then were treated with a higher concentration of CDDP. This development period was carried out for approximately 6 months, and finally, we obtained the HepG2/CDDP cells. HepG2/CDDP cells were then continuously maintained in the presence of 20 μM CDDP for a further 3 months to maintain stability. All cells were cultured in DMEM media containing 10% fetal bovine serum and incubated with 100 U/ml penicillin and 100 μg/ml streptomycin (Thermo) at 37 °C under an atmosphere of 95% air and 5% CO2.
HepG2 and HepG2/CDDP cells were plated in 96-well plates at a density of 5000 cells in 200 μl medium per well and incubated overnight. The cells were treated with calyxin Y and/or CDDP for 24 h, 48 or 72 h. The cell viability of HepG2 and HepG2/CDDP cells was measured by MTT assay as described previously.

For series [5], the system named is HepG2 cells. Kind of series: MTT cell viability assay. The settings on record: 24 h. Format: cell-based, human. The procedure: HepG2 and HepG2/CDDP cells were plated in 96-well plates at a density of 5000 cells in 200 μl medium per well and incubated overnight. The cells were treated with […] and/or CDDP for 24 h, 48 or 72 h. The cell viability of HepG2 and HepG2/CDDP cells was measured by MTT assay as described previously.

The nature of series [6]: Hematological biochemical parameters of nude mice bearing HepG2/CDDP xenograft. The settings on record: calyxin Y 20 mg/kg i.p. every other day and/or CDDP 4 mg/kg i.p. once per week, 19 days; mean ± S.D., n = 3. The series is classed as in vivo, BALB/c nu/nu mice. Here is the method: as §1
For series [7], the system named is eEF2K in HepG2/CDDP cells. The settings on record: calyxin Y 5, 10, 20 µM, 24 h. Here is the method:
(§2) HepG2 and HepG2/CDDP cells were lysed in western blotting lysis buffer and centrifuged at 12000 g for 10 min. The procedures for Western blotting were described previously.

The next series concerns eEF2K in HepG2 cells. Particulars: calyxin Y 5, 10, 20 µM, 24 h. The procedure: as §2
Series [8] has as its system eEF2K mRNA in HepG2/CDDP cells. The settings on record: calyxin Y 5, 10, 20 µM, 24 h. The procedure:
(§3) Total RNA samples from HepG2 and HepG2/CDDP cells were extracted using RNAiso Plus reagent following the manufacturer’s protocols. RNA (1 μg) was reverse-transcribed using a ReverTra Ace qPCR RT-Kit (Toyobo Life Science, Osaka, Japan) in a MyCycler PCR system (BioRad Laboratories, Hercules, CA). SYBR Green PCR Master Mix was purchased from Toyobo Life Science. The 2^−ΔΔCT cycle threshold method was used for the calculation of relative differences in mRNA abundance with a LightCycler 480 qPCR System (Roche Molecular Biochemicals, Mannheim, Germany). Data were normalized to the expression of β-Actin. The results of qRT-PCR were expressed as fold-changes. The normalized value of the target mRNA of the control group is arbitrarily presented as 100. The pairs of primer for PCR were listed below: • eEF2K: (sense) 5′-[…]-3′; • eEF2K: (antisense) 5′-[…]-3′. • β-Actin: (sense) 5′-[…] CAATG-3′; • β-Actin: (antisense) 5′-[…]-3′.

For series [9], the system named is eEF2K mRNA in HepG2 cells. The settings on record: calyxin Y 5, 10, 20 µM, 24 h. Here is the method:
as §3

The term IC50 denotes the point on the concentration scale where inhibition reaches its midpoint. Read a low IC50 as greater potency.

On to `[NH2][Pt]([NH2])([Cl])[Cl]` [CDDP, cisplatin], for which the “cleavage of caspase-7, caspase-3 and PARP” value with HepG2/CDDP cells [1] was “did not cause the cleavage”. In series [2], the Hematocrit stood at 44.3 ± 2.8%, the Hemoglobin stood at 126.3 ± 4.7 g/L, the Lymphocytes is on record as 8.9 ± 1.9 10^9/L and the Mean corpuscular hemoglobin was found to be 13.4 ± 0.29 pg. In series [2], the Mean corpuscular volume worked out at 47.7 ± 3.5 fL, the Platelet counts is recorded as 562.1 ± 19.2 10^9/L, the Red blood cells is given as 9.6 ± 0.67 10^12/L and the White blood cells is 9.9 ± 0.39 10^9/L. The “apoptosis (AV+ cells)” value in the series on HepG2 cells [3] was determined as 31%. Also, half-maximal inhibition in the series with HepG2/CDDP cells [4] (HepG2/CDDP cells, 24 h, MTT) (IC50) required 95.4 µM. In addition, the resistance index in the series on HepG2/CDDP cells [4] (HepG2/CDDP vs HepG2, IC50 at 24 h) is listed as around 6 fold. In the series with HepG2 cells [5] (MTT), this compound yielded an IC50 of 16.7 µM. In series [6], this compound returned an Alanine aminotransferase of 40.2 ± 1.2 U/L, an Alkaline phosphatase of 125.4 ± 0.91 U/L and an Aspartate aminotransferase of 158.5 ± 5.1 U/L.

As to Calyxin Y, the eEF2K expression result in series [7] is on record as “reduced eEF2K expression in a dose-dependent manner”. Also, the eEF2K expression result in the series on eEF2K in HepG2 cells is “reduced eEF2K expression in a dose-dependent manner”. For the same compound, in series [2], the Hematocrit was 44.1 ± 1.4%, the Hemoglobin is on record as 138.4 ± 7.0 g/L, the Lymphocytes is 18.5 ± 1.8 10^9/L and the Mean corpuscular hemoglobin turned out to be 14.5 ± 0.13 pg. Besides, in series [2], the Mean corpuscular volume is 47.3 ± 3.3 fL, the Platelet counts was 588.5 ± 80.5 10^9/L, the Red blood cells is on record as 11.0 ± 0.27 10^12/L and the White blood cells is 15.2 ± 2.2 10^9/L. Also, in the series with HepG2/CDDP cells [4] (HepG2/CDDP cells, calyxin Y 10, 20, 30, 40 µM, 24 h), the cell viability result is “inhibited the viability of HepG2/CDDP cells as much as it did that of HepG2 cells in a concentration-dependent manner”. Further, in series [8], the “eEF2K mRNA levels” value was “not significantly changed”. Moreover, the “eEF2K mRNA levels” value in series [9] is “not significantly changed”. Besides, in the series with HepG2 cells [5] (calyxin Y 10, 20, 30, 40 µM), the cell viability entry is listed as “concentration-dependent manner”. In series [6], the Alanine aminotransferase was 37.5 ± 1.4 U/L, the Alkaline phosphatase was determined as 115.4 ± 2.7 U/L and the Aspartate aminotransferase is given as 129.3 ± 3.5 U/L.

Source of the values: paper PMC5642580, “Calyxin Y sensitizes cisplatin-sensitive and resistant hepatocellular carcinoma cells to cisplatin through apoptotic and autophagic cell death via SCF βTrCP-mediated eEF2K degradation” (Oncotarget, 2017).
